Reference: ChEMBL document CHEMBL6083285 (J Med Chem, 2024)
≈ marks a conversion by molar mass, not a printed value.

Key:
[1] = Inhibition of NLRP3 inflammasome activation mediated pyroptosis in LPS-stimulated human THP-1 cells preincubated for 3 hrs followed by nigericin addition and measured after 1 hrs by resazurin dye based assay; type: cell-based
[2] = Inhibition of NLRP3 inflammasome activation in LPS-stimulated human whole blood assessed as reduction in IL-1beta release preincubated for 3 hrs followed by nigericin addition and measured after 1 hrs by Alphalisa method; type: tissue-based
[3] = Lipophilicity, logD of compound at pH 7.4; type: physicochemical; details: buffer
[4] = Metabolic stability in pooled human liver microsomes assessed as intrinsic clearance at 1 uM measured upto 45 mins in presence of NADPH by UPLC-MS/MS analysis; type: ADME, Microsome; details: read-out: CLH
[5] = Metabolic stability in human hepatocytes assessed as intrinsic clearance measured per 10^6 cells at 100 uM incubated upto 60 mins by UPLC-MS/MS analysis; type: ADME, cell-based, Hepatocyte; details: read-out: CLH
[6] = Volume of distribution at steady state in male Sprague-Dawley rat at 1 mg/kg, iv measured after 24 hrs by LC-MS analysis; type: ADME, organism-based; details: in vivo, read-out: Vdss
[7] = Metabolic stability in rat hepatocytes assessed as intrinsic clearance measured per 10^6 cells at 100 uM incubated upto 60 mins by UPLC-MS/MS analysis; type: ADME, cell-based, Hepatocyte; details: read-out: CLH
[8] = Metabolic stability in pooled rat liver microsomes assessed as intrinsic clearance at 1 uM measured upto 45 mins in presence of NADPH by UPLC-MS/MS analysis; type: ADME, Microsome; details: read-out: CLH
[9] = Half-life in male Sprague-Dawley rat at 1 mg/kg, iv measured after 24 hrs by LC-MS analysis; type: ADME, organism-based; details: in vivo
BCRP [10] = test: Efflux ratio of permeability in MDCK-II-BCRP cells at 5 uM incubated for 2 hrs by LC-MS/MS analysis; type: ADME, cell-based, Canis lupus familiaris; details: dog
[11] = Metabolic stability in mouse hepatocytes assessed as intrinsic clearance measured per 10^6 cells at 100 uM incubated upto 60 mins by UPLC-MS/MS analysis; type: ADME, cell-based, Hepatocyte; details: read-out: CLH
MDR1 [12] = test: Efflux ratio of permeability across apical to basolateral side in pig LLC-PK1 cells transfected with MDR1; type: ADME, cell-based, Sus scrofa
[13] = Protein binding in human plasma assessed as unbound fraction at 5 uM incubated for 4 hrs by UPLC-MS analysis; type: ADME, cell-free
MDR1 [14] = test: Permeability in MDCKII-MDR1 cells at 5 uM incubated for 2 hrs by LC-MS/MS analysis; type: ADME, cell-based, Canis lupus familiaris; details: dog, MDCK-MDR1, read-out: permeability
[15] = Protein binding in rat plasma assessed as unbound fraction at 5 uM incubated for 4 hrs by UPLC-MS analysis; type: ADME, cell-free
[16] = Clearance in male Sprague-Dawley rat at 1 mg/kg, iv measured after 24 hrs by LC-MS analysis; type: ADME, organism-based; details: in vivo
[17] = Kinetic solubility of compound; type: physicochemical; details: read-out: Kinetic_solubility
BCRP [18] = test: Permeability in MDCK-II-BCRP cells at 5 uM incubated for 2 hrs by LC-MS/MS analysis; type: ADME, cell-based, Canis lupus familiaris; details: dog, read-out: permeability
[19] = Metabolic stability in pooled mouse liver microsomes assessed as intrinsic clearance at 1 uM measured upto 45 mins in presence of NADPH by UPLC-MS/MS analysis; type: ADME, Microsome; details: read-out: CLH
MDR1 [20] = test: Efflux ratio of permeability in MDCKII-MDR1 cells at 5 uM incubated for 2 hrs by LC-MS/MS analysis; type: ADME, cell-based, Canis lupus familiaris; details: dog, MDCK-MDR1
MDR1 [21] = test: Permeability across apical to basolateral side in pig LLC-PK1 cells transfected with MDR1; type: ADME, cell-based, Sus scrofa; details: read-out: permeability
[22] = AUC (0 to infinity) in male Sprague-Dawley rat at 1 mg/kg, iv measured after 24 hrs by LC-MS analysis; type: ADME, organism-based; details: in vivo
[23] = Protein binding in mouse plasma assessed as unbound fraction at 5 uM incubated for 4 hrs by UPLC-MS analysis; type: ADME, cell-free
[24] = Binding affinity to NanoLuc-tagged NLRP3 (unknown origin) expressed in HEK293 cells incubated for 2 hrs by NanoBRET assay; type: cell-based; details: Homo sapiens, HEK293, 2 h

Row | SMILES | IC50 [1] | IC50 [2] | other results
1 | CC1(C)COc2cc(ccn2)-c2ccc3c(c2CC(=O)NS(=O)(=O)c2ccn1n2)CCC3 | 16000 nM | – | –
2 | O=C1Nc2c(ccc3c2CCC3)-c2ccnc(c2)OCCCn2ccc(n2)S(=O)(=O)N1 | 571 nM | 987 nM | –
3 | CC(C)c1cccc2c1CC(=O)NS(=O)(=O)c1cccc(c1)C(C)(C)COc1cc-2ccn1 | 1460 nM | – | –
4 | CC1(C)COc2cc(ccn2)-c2ccc3c(c2NC(=O)NS(=O)(=O)c2ccn1n2)CCC3 | 86 nM | 270 nM | –
5 | CC(C)c1cccc2c1CC(=O)NS(=O)(=O)c1nn(cc1F)C(C)(C)COc1cc-2ccn1 | 480 nM | – | –
6 | CC(C)c1cc(F)cc2c1CC(=O)NS(=O)(=O)c1cnn(c1)C(C)(CO)COc1cc-2ccn1 (stereo not drawn) | 83 nM | 486 nM | –
7 | CC(C)c1cccc2c1CC(=O)NS(=O)(=O)c1cn(cn1)C(C)(C)COc1cc-2ccn1 | 721 nM | – | –
8 | COc1cc(-c2ccc3c(c2NC(=O)NS(=O)(=O)c2ccn(C(C)C)n2)CCC3)ccn1 | 51 nM | 412 nM | logD [3]: 0.09; microsomal CLint at 1 µM [4]: 12 µL/min/mg
9 | CC(C)c1cc(F)cc2c1CC(=O)NS(=O)(=O)c1cnn(c1)C1(COC1)COc1cc-2ccn1 | 84 nM | 326 nM | –
10 | CC(C)c1cc(F)cc2c1CC(=O)NS(=O)(=O)c1cnn(c1)C(C)(C)COc1cc-2ccn1 | 76 nM | 351 nM | hepatocyte CLint at 100 µM [5]: < 8 µL/min/1e6 cells; Vd [6]: 0.4 L/kg; hepatocyte CLint at 100 µM [7]: < 8 µL/min/1e6 cells; microsomal CLint at 1 µM [8]: < 15.4 µL/min/mg; half-life [9]: 1.5 h; efflux ratio at 2 h, 5 µM (BCRP [10]): 6; hepatocyte CLint at 100 µM [11]: 21 µL/min/1e6 cells; efflux ratio (MDR1 [12]): 2.9; fraction unbound at 4 h, 5 µM [13]: 0.047; logD [3]: 1.5; Papp at 2 h, 5 µM (MDR1 [14]): 10.4 ×10⁻⁶ cm/s; fraction unbound at 4 h, 5 µM [15]: 0.036; clearance [16]: 3.5 mL/min/kg; solubility kinetic [17]: 16.5 µg/mL (≈ 34.9 µM); Papp at 2 h, 5 µM (BCRP [18]): 10.9 ×10⁻⁶ cm/s; microsomal CLint at 1 µM [19]: 35 µL/min/mg; efflux ratio at 2 h, 5 µM (MDR1 [20]): 18; Papp A→B (MDR1 [21]): 0.39 ×10⁻⁶ cm/s; AUC(0-inf) [22]: 4900 ng·h/mL; fraction unbound at 4 h, 5 µM [23]: 0.086
11 | CC1(C)COc2cc(ccn2)-c2ccc3c(c2NC(=O)NS(=O)(=O)c2nn1cc2F)CCC3 | 17 nM | 168 nM | –
12 | CC(C)c1cccc2c1CC(=O)NS(=O)(=O)c1cnn(c1)C1(CC1)COc1cc-2ccn1 | 567 nM | 421 nM | –
13 | CC(C)(O)c1coc(S(=O)(=O)NC(=O)Nc2c3c(cc4c2CCC4)CCC3)c1 | 64 nM | 770 nM | IC50 [24]: 990 nM
14 | CC(C)n1ccc(S(=O)(=O)NC(=O)Nc2c(-c3ccnc(OC4CCN(C)CC4)c3)ccc3c2CCC3)n1 | 46 nM | 440 nM | logD [3]: -0.02
15 | CCC1(C)COc2cc(ccn2)-c2cccc(C(C)C)c2CC(=O)NS(=O)(=O)c2cnn1c2 (stereo not drawn) | 275 nM | 241 nM | –
16 | CC(C)c1cc(F)cc2c1CC(=O)NS(=O)(=O)c1cn(nc1F)C(C)(C)COc1cc-2ccn1 | 20 nM | 450 nM | –
17 | O=C1Nc2c(ccc3c2CCC3)-c2ccnc(c2)OCCCCCn2ccc(n2)S(=O)(=O)N1 | 289 nM | 1100 nM | –
18 | O=C1Nc2c(ccc3c2CCC3)-c2ccnc(c2)OCCn2ccc(n2)S(=O)(=O)N1 | 63 nM | 119 nM | –
19 | O=C1Nc2c(ccc3c2CCC3)-c2ccnc(c2)OCCCCCCn2ccc(n2)S(=O)(=O)N1 | 215 nM | 1570 nM | –
